# Measurements reported in patent publication US10016498B2, “D-amino acid derivative-modified peptidoglycan and methods of use thereof” (priority 2012, dated 2018).
# Assays:
# E. coli PG = type: cell-based, Escherchia coli
# L. monocytogenes PG [1] = assay: alkDala labeling of newly synthesized PG: growth phase, vancomycin-BODIPY colocalization, antibiotic treatment; type: cell-based
# L. monocytogenes = type: cell-based
# [2] = test system: peptidoglycan of gram-positive bacteria; assay: Incorporation of cyclooctyne D-amino acids into peptidoglycan, azido-PEG3-carboxyrhodamine labeling, flow cytometry and microscopy; type: cell-based, L. monocytogenes
# Description: With all three amino acids in hand, their incorporation into the peptidoglycan of gram-positive bacteria was tested. The bacteria were grown for one-doubling time in the presence of 5 mM unnatural amino acids 30 to 32. The cells were then washed to remove excess amino acid and labeled with 20 μM of the commercially available azido-PEG3-carboxyrhodamine. This fluorophore efficiently labels terminal-alkyne-tagged peptidoglycan under copper-click conditions. The cells were then washed to remove excess probe, fixed, and studied by flow-cytometry and microscopy.
# To further confirm that peptidoglycan was being labeled, a competition experiment was performed.
# L. monocytogenes PG [3] = assay: HPLC and mass spectrometry of muropeptides from purified PG; type: cell-based
# Description: Having ruled out other potential sites of D-alanine derivative labeling, direct evidence of its incorporation into PG was sought. PG comprises a repeating disaccharide to which is conjugated a short peptide, termed the stem peptide (FIG. 1A). Although newly synthesized PG stem peptide usually terminates in D-alanine-D-alanine, diverse bacterial phyla produce and incorporate D-amino acids other than D-alanine into those positions. (17, 18) The process is flexible; various natural and unnatural D-amino acids appear to incorporate, albeit at varying efficiencies. […] After digesting the PG with muramidase, HPLC was used to detect muropeptides by absorbance at either 204 nm (to visualize all species) or 500 nm (to identify fluorophore-containing fragments). […] PG samples from E. coli incubated in azDala alone were analyzed; and it was determined that the fraction of D-alanine that had been replaced with the synthetic analog was roughly 50% of the tetrapeptide pool and 15% of the total muropeptide population.
# FIGS. 2A-D. AlkDala incorporates into L. monocytogenes PG. […] Absorbance at 204 nm, blue, and at 500 nm, red, are shown. […] The most abundant peaks detected at 500 nm were collected and subjected to analysis by mass spectrometry, (D), to identify the chemical structure of the alkDala-containing muropeptides conjugated to azido-fluor 488, (B).
# [4] = test system: bacteria (E. coli, Bacillus subtilis, L. monocytogenes, Mycobacterium tuberculosis, Streptomyces coelicolor, Corynebacterium glutamicum); type: cell-based
# [5] = test system: L. monocytogenes in J774 macrophages; assay: alkDala labeling of intracellular bacteria during J774 macrophage infection; type: cell-based; settings: 50 mM alkDala, azido-fluor 488
compound,measurement,setting,value
"C#CC[C@@H](N)C(=O)O [alkDala, R-propargylglycine]",position of insertion in the PG stem peptide,E. coli PG,fourth position
same,"colocalization of signal with vancomycin-BODIPY, a marker of nascent PG","L. monocytogenes PG [1]; one generation, azido-fluor 545",colocalized
same,labeling of dal- dat- D-alanine auxotroph compared to wildtype,L. monocytogenes,labeled more strongly
same,labeling of listeria lacking PBP5 versus wild type,[2],enhanced labeling over wild type
same,position of insertion in the PG stem peptide,L. monocytogenes PG [3]; L. monocytogenes,fifth position
same,change of PG structure compared to D-alanine incubation,L. monocytogenes PG [3]; long periods of incubation,did not appreciably change PG structure
same,cell surface labeling by microscopy,[4],Clear cell surface labeling of all species tested
same,site of labeling of intracellular L. monocytogenes,[5]; longer pulse (3.5 hrs),at the septa and poles
same,site of labeling of intracellular L. monocytogenes,[5]; short pulse (last 30 minutes),labeled more at the septa
C[C@@H]1O[C@@H]1P(=O)(O)O [fosfomycin],effect of antibiotic treatment on alkDala labeling,L. monocytogenes PG [1],completely abrogated
C[C@@H](O)[C@H]1C(=O)N2C(C(=O)O)=C(S[C@@H]3CN[C@H](C(=O)N(C)C)C3)[C@H](C)[C@H]12 [meropenem],effect of antibiotic treatment on alkDala labeling,L. monocytogenes PG [1],much weaker effect
penicillin,effect of antibiotic treatment on alkDala labeling,L. monocytogenes PG [1],much weaker effect
